Experiments:
[1] = biological target: T1, human PR-B (Homo sapiens, UniProt P06401); test: Co-transfection assay, PR agonist and antagonist activity, CV-1 cells; format: cell-based; conditions: for EC50: read-out: PR Agonist CV-1 Cells Potency; for PR Antagonist CV-1 Cells Efficacy (%): antagonist mode, progesterone at its EC50, % maximal inhibition; for IC50: read-out: PR Antagonist CV-1 Cells Potency;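 as to all read-outs here: luciferase reporter driven by a hormone response element, co-transfected with human PR-B into CV-1 monkey kidney cells, agonists raise and antagonists lower the reporter signal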
T1 construct: expressed in transfected cells; host or cells: CV-1 cells (African green monkey kidney fibroblasts), transient transfection
T1 sequence (P06401 1-933): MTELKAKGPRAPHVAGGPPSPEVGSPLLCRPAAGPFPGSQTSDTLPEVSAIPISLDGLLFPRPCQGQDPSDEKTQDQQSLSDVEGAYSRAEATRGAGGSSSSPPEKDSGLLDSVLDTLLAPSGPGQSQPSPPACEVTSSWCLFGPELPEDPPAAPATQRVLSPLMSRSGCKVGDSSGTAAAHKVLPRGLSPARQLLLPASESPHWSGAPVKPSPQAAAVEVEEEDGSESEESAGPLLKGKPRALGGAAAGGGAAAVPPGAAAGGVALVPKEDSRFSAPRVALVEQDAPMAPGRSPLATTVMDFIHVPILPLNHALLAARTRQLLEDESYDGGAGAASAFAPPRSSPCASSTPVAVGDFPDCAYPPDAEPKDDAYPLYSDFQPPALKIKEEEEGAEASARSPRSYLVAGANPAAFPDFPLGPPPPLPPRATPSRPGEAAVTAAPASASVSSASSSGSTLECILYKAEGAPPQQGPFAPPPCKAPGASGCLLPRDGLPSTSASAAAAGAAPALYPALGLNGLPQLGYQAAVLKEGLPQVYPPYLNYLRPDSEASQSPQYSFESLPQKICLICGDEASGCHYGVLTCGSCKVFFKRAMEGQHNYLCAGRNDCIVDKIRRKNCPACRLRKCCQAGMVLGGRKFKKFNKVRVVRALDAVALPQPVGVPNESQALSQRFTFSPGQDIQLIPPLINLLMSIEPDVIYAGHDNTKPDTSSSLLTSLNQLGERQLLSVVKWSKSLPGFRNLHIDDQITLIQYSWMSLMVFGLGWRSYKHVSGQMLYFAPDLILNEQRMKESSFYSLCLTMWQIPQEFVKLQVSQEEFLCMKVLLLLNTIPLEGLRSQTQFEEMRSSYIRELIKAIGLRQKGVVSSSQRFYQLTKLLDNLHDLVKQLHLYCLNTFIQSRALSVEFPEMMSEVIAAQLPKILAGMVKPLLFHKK

[2] = biological target: T2, human progesterone receptor A form (PR-A) (Homo sapiens, UniProt P06401); test: PR binding assay, baculovirus extract, [3H] progesterone; conditions: read-out: PR Binding Ki
T2 sequence (P06401 1-769 isoform P06401-2): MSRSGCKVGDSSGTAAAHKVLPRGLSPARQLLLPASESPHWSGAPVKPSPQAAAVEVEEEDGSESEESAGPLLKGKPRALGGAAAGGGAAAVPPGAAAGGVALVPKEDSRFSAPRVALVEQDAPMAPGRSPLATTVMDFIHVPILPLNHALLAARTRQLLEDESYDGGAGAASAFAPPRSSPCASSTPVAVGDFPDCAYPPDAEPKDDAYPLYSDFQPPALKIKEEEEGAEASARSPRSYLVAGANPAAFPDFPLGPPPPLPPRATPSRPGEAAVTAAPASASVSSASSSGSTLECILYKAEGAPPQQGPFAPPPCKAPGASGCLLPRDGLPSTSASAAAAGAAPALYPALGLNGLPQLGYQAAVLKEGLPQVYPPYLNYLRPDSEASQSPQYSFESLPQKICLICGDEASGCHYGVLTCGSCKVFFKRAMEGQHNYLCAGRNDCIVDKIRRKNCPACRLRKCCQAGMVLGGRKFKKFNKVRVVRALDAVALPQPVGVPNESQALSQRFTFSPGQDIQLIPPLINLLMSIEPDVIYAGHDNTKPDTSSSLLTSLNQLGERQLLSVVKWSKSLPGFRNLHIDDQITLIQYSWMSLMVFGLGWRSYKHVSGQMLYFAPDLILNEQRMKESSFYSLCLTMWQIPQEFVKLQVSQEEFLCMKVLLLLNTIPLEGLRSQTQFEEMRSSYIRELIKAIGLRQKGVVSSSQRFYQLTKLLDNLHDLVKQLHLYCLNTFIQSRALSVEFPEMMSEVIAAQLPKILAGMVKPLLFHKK

[3] = biological target: T3, human mineralocorticoid receptor (MR) (Homo sapiens, UniProt P08235); test: Co-transfection assay, MR antagonist activity, CV-1 cells (pRShMR); format: cell-based; conditions: antagonist mode; for MR Antagonist CV-1 Cells Efficacy (%): Table 4, % maximal inhibition; for IC50: aldosterone at its EC50, read-out: MR Antagonist CV-1 Cells Potency
T3 construct: expressed in transfected cells; host or cells: CV-1 cells, transient transfection
T3 sequence (P08235 1-984): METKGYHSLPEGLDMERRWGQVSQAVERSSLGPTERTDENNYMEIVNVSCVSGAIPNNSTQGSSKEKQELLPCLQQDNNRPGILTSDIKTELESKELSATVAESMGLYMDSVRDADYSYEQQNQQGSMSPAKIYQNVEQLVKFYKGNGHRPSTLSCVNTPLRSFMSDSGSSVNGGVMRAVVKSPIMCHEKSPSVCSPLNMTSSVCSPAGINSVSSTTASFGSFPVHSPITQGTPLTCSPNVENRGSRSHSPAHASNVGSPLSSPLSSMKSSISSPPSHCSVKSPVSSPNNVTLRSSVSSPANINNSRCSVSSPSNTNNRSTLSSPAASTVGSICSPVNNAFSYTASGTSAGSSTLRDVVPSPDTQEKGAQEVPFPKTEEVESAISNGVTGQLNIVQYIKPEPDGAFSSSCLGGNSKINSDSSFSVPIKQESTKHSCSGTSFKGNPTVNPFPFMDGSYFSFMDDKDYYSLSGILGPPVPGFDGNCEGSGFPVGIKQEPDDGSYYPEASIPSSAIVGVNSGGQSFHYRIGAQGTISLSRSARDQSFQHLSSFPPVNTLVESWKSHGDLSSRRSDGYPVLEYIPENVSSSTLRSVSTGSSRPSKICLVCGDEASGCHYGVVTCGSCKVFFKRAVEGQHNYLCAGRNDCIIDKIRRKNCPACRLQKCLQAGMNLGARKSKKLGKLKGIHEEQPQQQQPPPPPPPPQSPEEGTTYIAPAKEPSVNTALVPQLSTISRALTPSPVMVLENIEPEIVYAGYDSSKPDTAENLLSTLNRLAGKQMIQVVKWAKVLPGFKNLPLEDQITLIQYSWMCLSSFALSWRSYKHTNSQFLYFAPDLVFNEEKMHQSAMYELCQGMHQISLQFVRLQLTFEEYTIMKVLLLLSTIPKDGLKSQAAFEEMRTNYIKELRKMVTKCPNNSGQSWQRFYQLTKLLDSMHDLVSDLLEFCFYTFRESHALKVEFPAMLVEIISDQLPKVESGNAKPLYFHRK

With CC1=CC(C)(C)Nc2ccc3c(c21)C(c1ccccc1)Oc1ccccc1-3 (racemic) [Compound 161, (R/S)-1,2-Dihydro-2,2,4-trimethyl-5-phenyl-5H-chromeno[3,4-f]quinoline] the EC50 ([1]; agonist mode) was 203 nM, the “PR Agonist CV-1 Cells Efficacy (%)” value ([1]; agonist mode, percent maximal response relative to reference agonist progesterone) was 47% and the “PR Antagonist CV-1 Cells Efficacy (%)” value [1] was 75%. The IC50 [1] was 209 nM, the Ki [2] was 3 nM and the “MR Antagonist CV-1 Cells Efficacy (%)” value [3] was 58%. It also gave an IC50 [3] of 1000 nM.

For CC1=CC(C)(C)Nc2ccc3c(c21)C(c1cccc(C(F)(F)F)c1)Oc1ccccc1-3 (racemic) [Compound 195, (R/S) 1,2-Dihydro-2,2,4-trimethyl-5-[3-(trifluoromethyl)phenyl]-5H-chromeno[3,4-f]quinoline], the EC50 ([1]; agonist mode) was 13 nM, the “PR Antagonist CV-1 Cells Efficacy (%)” value [1] was “na (na = not active (i.e. efficacy or <20 and potency of >10,000))” and the IC50 [1] was over 10000 nM. For the same compound, the Ki [2] was 3 nM, the “MR Antagonist CV-1 Cells Efficacy (%)” value [3] was 47% and the IC50 [3] was 1900 nM.

Source: patent US6448405B1, “Steroid receptor modulator compounds and methods” (Ligand Pharmaceuticals Incorporated, priority 1994, dated 2002)
